Key:
[1] = Cytotoxicity in mouse NCTC-929 cells assessed as reduction in cell viability incubated for 48 hrs by MTT assay; format: cell-based; details: NCTC-929 (L929) cells
Trypanosoma cruzi = test: Antitrypanosomal activity against Trypanosoma cruzi Y trypomastigotes infected in LLC-MK2-ATCC CCL7 cells assessed as reduction in parasite growth incubated for 24 hrs by Alamar blue dye based assay; format: functional, organism-based
[2] = Selectivity index, ratio of CC50 for cytotoxicity in mouse NCTC-929 cells to EC50 for Antitrypanosomal activity against Trypanosoma cruzi trypomastigotes infected in LLC-MK2-ATCC CCL7 cells; format: toxicity, cell-based; details: read-out: Ratio CC50/EC50

| EC50 (Trypanosoma cruzi) [µM] | Structure (SMILES) | CC50 at 48 h [1] [µM] | selectivity ratio [2] |
| --- | --- | --- | --- |
| > 100 | CN(C)c1ccc(/C=C/C(=O)c2ccc([N+](=O)[O-])cc2)cc1 | > 200 |  |
| > 100 | COc1ccc(C(=O)/C=C/c2ccc([N+](=O)[O-])cc2)cc1 | > 200 |  |
| > 100 | CN(C)c1ccc(/C=C/C(=O)c2cccc(N)c2)cc1 | 101 |  |
| > 100 | COc1ccc(C(=O)/C=C/c2ccc(N(C)C)cc2)cc1 | > 200 |  |
| > 100 | O=C(/C=C/c1ccccc1)c1ccc(-c2ccccc2)cc1 | > 200 |  |
| 3.3 | COc1cc(/C=C/C(=O)c2ccc(-c3ccccc3)cc2)cc(OC)c1OC | 29 | 8.9 |
| > 100 | CN(C)c1ccc(/C=C/C(=O)c2ccc(-c3ccccc3)cc2)cc1 | > 200 |  |
| > 100 | CN(C)c1ccc(/C=C/C(=O)c2ccc(Cl)cc2)cc1 | > 200 |  |
| 60.9 | O=C(/C=C/c1ccc2c(c1)OCO2)c1ccccc1 | 100 | 1.6 |
| 60 | O=C(/C=C/c1ccc2c(c1)OCO2)c1ccc(Cl)cc1 | > 200 |  |
| 26 | O=C(/C=C/c1ccccc1)c1cccc(O)c1 | 29.9 | 1.1 |
| > 100 | CN(C)c1ccc(/C=C/C(=O)c2ccccc2O)cc1 | 50.4 |  |
| > 100 | O=C(/C=C/c1ccc2c(c1)OCO2)c1ccccc1O | 140 |  |
| 13.9 | O=C(/C=C/c1ccccc1)c1ccc([N+](=O)[O-])cc1 | 127 | 9.1 |
| 73.2 | CN(C)c1ccc(/C=C/C(=O)c2ccccc2)cc1 | 117 | 1.6 |
| > 100 | COc1cc(CCC(=O)c2ccc(-c3ccccc3)cc2)cc(OC)c1OC | > 200 |  |
| > 100 | O=C(CCc1ccc2c(c1)OCO2)c1ccc(Cl)cc1 | > 200 |  |
| > 100 | CN(C)c1ccc(CCC(=O)c2cccc(O)c2)cc1 | > 200 |  |

| EC50 (Trypanosoma cruzi) [µM] | Structure (SMILES) | CC50 at 48 h [1] [µM] | selectivity ratio [2] |
| --- | --- | --- | --- |
| 10.6 | C=CCOc1ccccc1C(=O)/C=C/c1ccccc1 | 77.6 | 7.3 |
| 18.9 | C=CCOc1ccccc1C(=O)/C=C/c1ccc2c(c1)OCO2 | 82.3 | 4.3 |
| > 100 | O=C(CCc1ccccc1)c1ccc([N+](=O)[O-])cc1 | > 200 |  |
| > 100 | O=C(/C=C/c1ccc2c(c1)OCO2)c1ccc([N+](=O)[O-])cc1 | > 200 |  |
| 26.5 | O=C(/C=C/c1ccc2c(c1)OCO2)c1cccc(O)c1 | 24.5 | 1 |
| 28.6 | CN(C)c1ccc(/C=C/C(=O)c2cccc(O)c2)cc1 | > 200 | > 7 |
| > 100 | COc1ccc(C(=O)/C=C/c2ccc(Cl)cc2)cc1 | 120 |  |
| > 100 | COc1ccc(C(=O)/C=C/c2ccc3c(c2)OCO3)cc1 | > 200 |  |
| 18.4 | COc1cc(/C=C/C(=O)c2ccccc2)cc(OC)c1OC | 27.3 | 1.5 |
| > 100 | Oc1ccccc1C(O)CCc1ccccc1 (racemic) | > 200 |  |
| > 100 | O=[N+]([O-])c1ccc(C(O)CCc2ccccc2)cc1 (racemic) | > 200 |  |
| > 100 | OC(CCc1ccc2c(c1)OCO2)c1ccc(Cl)cc1 (racemic) | > 200 |  |
| 28.3 | COc1cc(CCC(O)c2ccc(-c3ccccc3)cc2)cc(OC)c1OC (racemic) | 95.6 | 3.4 |
| > 100 | CN(C)c1ccc(CCC(O)c2cccc(O)c2)cc1 (racemic) | > 200 |  |
| 28.8 | O=C(/C=C/c1ccccc1)c1ccccc1O [2'-HYDROXYCHALCONE] | 79.5 | 2.8 |
| > 100 | COc1ccc(C(=O)/C=C/c2ccccc2)cc1 [4'-METHOXYCHALCONE] | 50.4 |  |
| 16.5 | O=C(Cn1ccnc1[N+](=O)[O-])NCc1ccccc1 [BENZNIDAZOLE] | > 200 |  |
| 26.9 | O=C(/C=C/c1ccccc1)c1ccccc1 [CHALCONE] | 89.3 | 3.3 |

Reference: ChEMBL document CHEMBL4339233, “Structure-activity relationship study of antitrypanosomal chalcone derivatives using multivariate analysis” (Bioorg Med Chem Lett, 2019)
